These are literature values, as cited in PMC7004556 (Cancer Science, 2020).

In data set [1] the test system is FGFR pathway. The conditions noted are these: cited from earlier work.
For data set [2], the system named is patients. The conditions noted are these: phase I study, only at the highest dose investigated (12 mg); cited from earlier work.
For data set [3], the system named is advanced gastric cancer. The conditions noted are these: advanced gastric cancer with FGFR2 polysomy or gene amplification; cited from earlier work.
In data set [4] the test system is advanced solid tumors. As to conditions: Japanese patients with advanced solid tumors, duration ≥4 weeks; cited from earlier work.

In the case of `COc1cc(OC)cc(N(CCNC(C)C)c2ccc3ncc(-c4cnn(C)c4)nc3c2)c1` [JNJ‐42756493], the “Phosphate and 1,25‐(OH)2‐vitamin D” value in data set [1] (studies in solid tumors) is given as “increased”. In addition, the DLT observed result in data set [2] is reported as “detachment of retinal pigment epithelium <grade 3 was the only DLT observed”.
AZD4547: the Serum phosphate result in data set [1] was “increase”. Moreover, the “Effect on progression‐free survival compared with paclitaxel” value in data set [3] is given as “no significant effect”. The Best response entry in data set [4] was “stable disease”.
